# Source: ChEMBL document CHEMBL3881525, “Analogs of dehydrophenylahistins and their therapeutic use” (2007)
# Calls of active or inactive are those of the source. The calls are words filed in the database; no cut-off is given here.
# Tests used:
# [1] = Antiproliferative activity against taxol-resistant human MES-SA/Dx5 cells expressing MDR1 mRNA and P-gp; assay type: functional, cell-based
# [2] = Cytotoxicity against human NCI-H292 cells assessed as reduction in cell viability measured after 48 hrs by resazurin dye-based fluorometric analysis; assay type: functional; conditions: NCI-H292, 48 h
# [3] = Cytotoxicity against human MDA-MB-231 cells assessed as reduction in cell viability measured after 48 hrs by resazurin dye-based fluorometric analysis; assay type: functional; conditions: MDA-MB-231, 48 h
# [4] = Antiproliferative activity against human mitoxantrone-resistant HL60/MX2 cells; assay type: functional, cell-based; conditions: HL-60
# [5] = Cytotoxicity against human PC3 cells assessed as reduction in cell viability measured after 48 hrs by resazurin dye-based fluorometric analysis; assay type: functional; conditions: PC-3, 48 h
# [6] = Cytotoxicity against mouse B16F10 cells assessed as reduction in cell viability measured after 48 hrs by resazurin dye-based fluorometric analysis; assay type: functional; conditions: B16-F10, 48 h
# Tubulin (Homo sapiens) [7] = biological target: T1, Tubulin (Homo sapiens) (UniProt P68371+Q9H4B7+P0DPH7+P68366+Q13509+Q71U36+P04350+Q3ZCM7+P07437+P68363+Q9BQE3+Q6PEY2+Q13885+Q9BVA1+Q9BUF5); assay: Induction of microtubule depolymerization in HUVEC at 20 nM measured after 30 mins by DAPI-staining based immunofluorescence analysis; assay type: cell-based
# HL-60 = assay: Ratio of EC50 for human mitoxantrone-sensitive HL60 cells to EC50 for human mitoxantrone-resistant HL60/MX2 cells; assay type: functional
# [8] = Cytotoxicity against human HT-29 cells assessed as reduction in cell viability measured after 48 hrs by resazurin dye-based fluorometric analysis; assay type: functional; conditions: Homo sapiens, HT-29, 48 h
# MES-SA = assay: Ratio of EC50 for taxol-resistant human MES-SA/DX5 cells expressing MDR1 mRNA and P-gp to EC50 for taxol-sensitive human MES-SA cells; assay type: functional
# Tubulin (Homo sapiens) [9] = biological target: T1, Tubulin (Homo sapiens); assay: Induction of microtubule depolymerization in HUVEC at 1.5 to 5 uM by turbidity spectroscopic analysis; assay type: cell-based
# Jurkat [10] = assay: Induction of apoptosis in human Jurkat cells assessed as caspase3 activation; assay type: functional, cell-based
# [11] = Antiproliferative activity against human mitoxantrone-sensitive HL60 cells; assay type: functional, cell-based; conditions: HL-60
# [12] = biological target: Tubulin (Candida albicans) (UniProt P87066+P10875+O93807); assay: Inhibition of microtubule formation in Candida albicans; assay type: protein-complex assay
# Tubulin (Candida albicans), sequence (O93807 whole entry, looked up): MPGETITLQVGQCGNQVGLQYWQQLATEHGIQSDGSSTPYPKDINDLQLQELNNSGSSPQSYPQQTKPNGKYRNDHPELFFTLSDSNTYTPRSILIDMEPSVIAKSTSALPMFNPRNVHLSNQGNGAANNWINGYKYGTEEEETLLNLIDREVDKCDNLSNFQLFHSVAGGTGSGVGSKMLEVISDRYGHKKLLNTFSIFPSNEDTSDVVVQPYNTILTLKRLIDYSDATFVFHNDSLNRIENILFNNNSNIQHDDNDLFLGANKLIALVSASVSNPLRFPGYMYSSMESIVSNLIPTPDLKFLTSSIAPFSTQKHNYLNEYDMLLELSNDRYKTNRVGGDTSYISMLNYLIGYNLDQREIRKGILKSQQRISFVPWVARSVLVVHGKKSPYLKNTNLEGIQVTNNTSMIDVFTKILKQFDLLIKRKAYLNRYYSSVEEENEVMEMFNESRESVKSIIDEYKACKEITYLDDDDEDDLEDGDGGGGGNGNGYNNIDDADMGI
# Tubulin (Candida albicans), sequence (P10875 whole entry, looked up): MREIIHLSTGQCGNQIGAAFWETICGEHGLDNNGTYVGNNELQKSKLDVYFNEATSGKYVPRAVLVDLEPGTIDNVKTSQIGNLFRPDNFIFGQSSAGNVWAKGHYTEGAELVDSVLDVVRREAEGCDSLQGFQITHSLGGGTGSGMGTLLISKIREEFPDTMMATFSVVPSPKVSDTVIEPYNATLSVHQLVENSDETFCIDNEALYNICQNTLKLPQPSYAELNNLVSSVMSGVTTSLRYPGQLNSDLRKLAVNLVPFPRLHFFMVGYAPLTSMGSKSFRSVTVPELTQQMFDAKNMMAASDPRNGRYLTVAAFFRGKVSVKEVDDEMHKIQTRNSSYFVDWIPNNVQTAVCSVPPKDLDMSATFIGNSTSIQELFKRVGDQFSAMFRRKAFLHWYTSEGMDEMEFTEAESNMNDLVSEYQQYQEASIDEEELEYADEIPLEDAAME
# Tubulin (Candida albicans), sequence (P87066 whole entry, looked up): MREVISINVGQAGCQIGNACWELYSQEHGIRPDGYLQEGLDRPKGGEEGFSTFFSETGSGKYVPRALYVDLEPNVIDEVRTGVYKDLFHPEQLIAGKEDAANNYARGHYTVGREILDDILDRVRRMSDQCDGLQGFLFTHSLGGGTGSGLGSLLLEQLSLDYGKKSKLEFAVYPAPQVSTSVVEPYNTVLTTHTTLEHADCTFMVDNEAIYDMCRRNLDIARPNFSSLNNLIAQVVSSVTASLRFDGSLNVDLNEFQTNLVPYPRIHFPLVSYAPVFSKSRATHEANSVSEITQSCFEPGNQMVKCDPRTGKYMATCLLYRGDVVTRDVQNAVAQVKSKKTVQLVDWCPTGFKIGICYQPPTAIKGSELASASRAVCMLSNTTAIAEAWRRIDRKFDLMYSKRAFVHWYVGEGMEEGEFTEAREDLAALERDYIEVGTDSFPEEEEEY
# [13] = Cytotoxicity against human HT-29 cells assessed as reduction in cell viability measured after 48 hrs by resazurin dye-based fluorometric analysis relative to control; assay type: functional
# [14] = Antifungal activity against Epidermophyton floccosum isolate 1 measured after 48 hrs by broth dilution method; assay type: functional
# Trichophyton rubrum [15] = assay: Fungicidal activity against Trichophyton rubrum isolate 2 measured after 48 hrs by broth dilution method; assay type: functional; conditions: isolate 2, 48 h
# Trichophyton rubrum [16] = assay: Fungicidal activity against Trichophyton rubrum isolate 1 measured after 48 hrs by broth dilution method; assay type: functional; conditions: isolate 1, 48 h
# [17] = Antifungal activity against Candida glabrata measured after 48 hrs by broth dilution method; assay type: functional; conditions: Nakaseomyces glabratus
# [18] = Antifungal activity against Trichophyton mentagrophytes isolate 2 measured after 48 hrs by broth dilution method; assay type: functional
# [19] = test system: Trichophyton mentagrophytes; assay: Fungicidal activity against Trichophyton mentagrophytes isolate 1 measured after 48 hrs by broth dilution method; assay type: functional; conditions: isolate 1, 48 h
# Aspergillus fumigatus [20] = assay: Fungicidal activity against Aspergillus fumigatus isolate 2 measured after 48 hrs by broth dilution method; assay type: functional; conditions: isolate 2, 48 h
# Aspergillus fumigatus [21] = assay: Antifungal activity against Aspergillus fumigatus isolate 2 measured after 48 hrs by broth dilution method; assay type: functional; conditions: isolate 2, 48 h
# Aspergillus fumigatus [22] = assay: Antifungal activity against Aspergillus fumigatus isolate 1 measured after 48 hrs by broth dilution method; assay type: functional; conditions: isolate 1, 48 h
# [23] = Antifungal activity against Trichophyton mentagrophytes isolate 1 measured after 48 hrs by broth dilution method; assay type: functional
# Candida albicans [24] = assay: Antifungal activity against Candida albicans 90028 measured after 48 hrs by broth dilution method; assay type: functional; conditions: Candida albicans, 90028, 48 h
# [25] = Antifungal activity against Epidermophyton floccosum isolate 2 measured after 48 hrs by broth dilution method; assay type: functional
# [26] = Antifungal activity against Trichophyton rubrum isolate 2 measured after 48 hrs by broth dilution method; assay type: functional
# [27] = Antifungal activity against Trichophyton rubrum isolate 1 measured after 48 hrs by broth dilution method; assay type: functional
# Candida albicans [28] = assay: Antifungal activity against Candida albicans ATCC 10231 measured after 48 hrs by broth dilution method; assay type: functional; conditions: ATCC 10231, 48 h
# [29] = Cytotoxicity against human PC3 cells assessed as reduction in cell viability measured after 48 hrs by resazurin dye-based fluorometric analysis relative to control; assay type: functional, PC-3; parameters: concentration or dose not given beside the values
# Jurkat [30] = assay: Induction of apoptosis in human Jurkat cells assessed as PARP cleavage at 100 nM measured after 10 hrs by Western blotting; assay type: functional, cell-based
# [31] = Antiproliferative activity against taxol-sensitive human MES-SA cells pretreated with p-gp inhibitor cyclosporinA followed by compound addition; assay type: functional, cell-based
# [32] = Antiproliferative activity against taxol-sensitive human MES-SA cells […]; assay type: functional, cell-based
# [33] = Antiproliferative activity against taxol-resistant human MES-SA/Dx5 cells expressing MDR1 mRNA and P-gp pretreated with p-gp inhibitor cyclosporinA followed by compound addition; assay type: functional, cell-based
# Jurkat [34] = assay: Induction of apoptosis in human Jurkat cells assessed as DNA laddering at 1 nM by gel electrophoresis; assay type: functional, cell-based
# [35] = biological target: Tubulin alpha (Homo sapiens) (UniProt P0DPH7+P68366+Q71U36+P68363+Q9BQE3+Q6PEY2+A6NHL2+Q9NY65); assay: Induction of alpha-tubulin depolymerization in HUVEC at 200 nM measured after 30 mins by DAPI staining based indirect immunofluorescence analysis; assay type: cell-based
smiles,measurement,setting,value
CC(C)(C)c1ocnc1/C=c1\[nH]c(=O)/c(=C/c2cc(F)cc(F)c2F)[nH]c1=O,IC50,[1],13 nM
same,EC50,[2],16 nM
same,EC50,[3],52 nM
same,EC50,[4],19 nM
same,EC50,[5],21 nM
same,EC50,[6],> 2000 nM
same,Activity,Tubulin (Homo sapiens) [7],Active
same,Ratio EC50,HL-60,0.7
same,EC50,[8],11.4 to 17 nM
same,Ratio EC50,MES-SA,1
same,Activity,Tubulin (Homo sapiens) [9],Active
CC(C)(C)c1ocnc1/C=c1\[nH]c(=O)/c(=C/c2cccc(F)c2)[nH]c1=O,IC50,[1],14 nM
same,EC50,[2],14 nM
same,EC50,[3],24 nM
same,EC50,[4],14 nM
same,EC50,[6],13 nM
same,Activity,Tubulin (Homo sapiens) [7],Active
same,Ratio EC50,HL-60,0.5
same,EC50,[8],16.3 to 17.1 nM
same,Ratio EC50,MES-SA,1.2
same,Activity,Tubulin (Homo sapiens) [9],Active
O=C1c2c(O)ccc(O)c2C(=O)c2c(NCCNCCO)ccc(NCCNCCO)c21 [MITOXANTRONE],Activity,Jurkat [10],Dose-dependent effect
same,EC50,[4],1100 to 4870 nM
same,EC50,[11],42 to 202 nM
CC(C)OC(=O)Nc1cccc(Cl)c1,inhibition,[12],Active
CC(C)(C)c1ocnc1/C=c1\[nH]c(=O)/c(=C/c2ccccc2)[nH]c1=O.O=C(O)C(F)(F)F,IC50,[1],17 nM
same,EC50,[2],19 nM
same,EC50,[3],41 nM
same,EC50,[4],14 nM
same,EC50,[5],20 nM
same,EC50,[6],> 2000 nM
same,Activity,Tubulin (Homo sapiens) [7],Active
same,Ratio EC50,HL-60,0.6
same,inhibition (INH),[13],88%
same,EC50,[8],21 to 22.2 nM
same,Ratio EC50,MES-SA,1.4
same,Activity,Tubulin (Homo sapiens) [9],Active
COc1ccc(O)c(/C=c2\[nH]c(=O)/c(=C/c3nc[nH]c3C(C)(C)C)[nH]c2=O)c1.O=C(O)C(F)(F)F,EC50,[4],31 nM
same,EC50,[11],32 nM
same,Ratio EC50,HL-60,1
same,inhibition (INH),[13],25%
same,EC50,[8],> 2000 nM
CC(C)(C)c1ocnc1/C=c1\[nH]c(=O)/c(=C/c2c(F)c(F)cc(F)c2F)[nH]c1=O,IC50,[1],14 nM
same,EC50,[2],14 nM
same,EC50,[3],42 nM
same,EC50,[5],17 nM
same,EC50,[6],> 2000 nM
same,Activity,Tubulin (Homo sapiens) [7],Active
same,Ratio EC50,HL-60,0.4
same,EC50,[8],11 to 14.8 nM
same,Ratio EC50,MES-SA,1.1
same,Activity,Tubulin (Homo sapiens) [9],Active
COc1cc(/C=c2\[nH]c(=O)/c(=C/c3nc[nH]c3C(C)(C)C)[nH]c2=O)cc(OC)c1OC,MIC,[14],> 16 µg/mL
same,MFC,Trichophyton rubrum [15],< 0.03 µg/mL
same,MFC,Trichophyton rubrum [16],> 16 µg/mL
same,MIC,[17],> 32 µg/mL
same,MIC,[18],> 16 µg/mL
same,MFC,[19],> 16 µg/mL
same,MFC,Aspergillus fumigatus [20],> 16 µg/mL
same,MIC,Aspergillus fumigatus [21],0.06 µg/mL
same,MIC,Aspergillus fumigatus [22],> 16 µg/mL
same,EC50,[8],819 to 2000 nM
same,MIC,[23],1 µg/mL
same,MIC,Candida albicans [24],> 32 µg/mL
same,MIC,[25],> 16 µg/mL
same,MIC,[26],< 0.03 µg/mL
same,MIC,[27],0.06 µg/mL
same,MIC,Candida albicans [28],> 32 µg/mL
COc1ccc(/C=c2\[nH]c(=O)/c(=C/c3nc[nH]c3C(C)(C)C)[nH]c2=O)c(OC)c1OC,Activity,[29],94%
same,MIC,[17],> 32 µg/mL
same,MFC,Aspergillus fumigatus [20],> 16 µg/mL
same,MIC,Aspergillus fumigatus [21],0.06 µg/mL
same,inhibition (INH),[13],78%
same,MIC,Aspergillus fumigatus [22],> 16 µg/mL
same,EC50,[8],4060 to 4800 nM
same,MIC,Candida albicans [24],> 32 µg/mL
same,MIC,Candida albicans [28],> 32 µg/mL
C=CC(C)(C)c1[nH]cnc1/C=c1\[nH]c(=O)/c(=C/c2ccccc2)[nH]c1=O,EC50,[1],98 nM
same,MIC,[14],> 16 µg/mL
same,MFC,Trichophyton rubrum [15],> 16 µg/mL
same,Activity,Jurkat [30],Active
same,EC50,[31],114 nM
same,MIC,[17],> 68 µg/mL
same,EC50,[32],116 nM
same,MIC,[18],> 16 µg/mL
same,MFC,[19],> 16 µg/mL
same,EC50,[5],4.7 to 5.4 nM
same,MIC,Aspergillus fumigatus [21],> 16 µg/mL
same,inhibition (INH),[13],86%
same,MIC,Aspergillus fumigatus [22],> 16 µg/mL
same,EC50,[8],42.6 to 48 nM
same,MIC,[23],4 µg/mL
same,EC50,[33],88 nM
same,Activity,Jurkat [34],Active
same,MIC,[25],> 16 µg/mL
same,MIC,[26],0.25 µg/mL
same,MIC,[27],> 16 µg/mL
CC(C)(C)c1[nH]cnc1/C=c1\[nH]c(=O)/c(=C/c2cccc(F)c2)[nH]c1=O,Activity,[35],Active
C=CC(C)(C)c1[nH]cnc1/C=C1\NC(=O)[C@H](Cc2ccccc2)NC1=O,MIC,[14],> 16 µg/mL
same,MFC,Trichophyton rubrum [15],> 16 µg/mL
same,MIC,[17],> 70 µg/mL
same,MIC,[18],> 16 µg/mL
same,MFC,[19],> 16 µg/mL
same,MIC,Aspergillus fumigatus [21],> 16 µg/mL
same,inhibition (INH),[13],87%
same,MIC,Aspergillus fumigatus [22],> 16 µg/mL
same,EC50,[8],394 to 1600 nM
same,MIC,[23],16 µg/mL
same,MIC,[25],> 16 µg/mL
same,MIC,[26],0.16 µg/mL
same,MIC,[27],> 16 µg/mL
CC(C)(C)c1[nH]cnc1/C=C1\NC(=O)[C@H](Cc2ccccc2)NC1=O,MIC,[14],> 16 µg/mL
same,MFC,Trichophyton rubrum [15],< 0.03 µg/mL
same,MFC,Trichophyton rubrum [16],0.125 µg/mL
same,MIC,[18],> 16 µg/mL
same,MFC,[19],> 16 µg/mL
same,MIC,[23],4 µg/mL
same,MIC,[25],> 16 µg/mL
same,MIC,[26],< 0.03 µg/mL
same,MIC,[27],< 0.03 µg/mL
CC(C)(C)c1[nH]cnc1/C=c1\[nH]c(=O)/c(=C/c2cc(Cl)ccc2[N+](=O)[O-])[nH]c1=O.O=C(O)C(F)(F)F,EC50,[4],19 nM
same,EC50,[11],28 nM
same,Ratio EC50,HL-60,0.7
same,inhibition (INH),[13],86%
same,EC50,[8],99.7 to 110 nM
